Experimental data reported in US20150105252A1, “SUBSTITUTED PYRAZOLES AS HERBICIDES” (E I DU PONT DE NEMOURS AND COMPANY, priority 2013, published 2015).

Experiments:
corn [1] = test: Test A postemergence; type: in vivo, Zea mays
Outline: (§1)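 Pre- and postemergence greenhouse test; loam+sand; cpd in non-phytotox. solvent/surfactant; post at 1–2 leaf, 2–10 cm; visual score ~10 d, 0 = none, 100 = complete control.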

velvetleaf [2] = test: Test C postemergence; type: in vivo, Abutilon theophrasti; details: postemergence; for Velvetleaf plant response rating: 62 g ai/ha, scale 0 to 100
Outline: (§2)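 Herbicidal effect is expressed as percent visual control (0–100) judged against untreated plants 13 to 15 days after treatment in the greenhouse. Preemergence pots contained seeds in a soil–sand blend; postemergence plants, 2–18 cm tall, grew in peat-based planting medium.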

oat, wild = test: Test C postemergence; type: in vivo, Avena fatua; details: for Oat, Wild plant response rating: scale 0 to 100
Outline: as §2

foxtail, giant = test: Test A preemergence; type: in vivo, Setaria faberii; details: 0 to 100 scale
Outline: as §1

velvetleaf [3] = test: Test A postemergence; type: in vivo, Abutilon theophrasti
Outline: as §1

morningglory [4] = test: Test C postemergence; type: in vivo, Ipomoea coccinea; details: for Morningglory plant response rating: scale 0 to 100
Outline: as §2

corn [5] = test: Test A preemergence; type: in vivo, Zea mays; details: 0 to 100 scale
Outline: as §1

pigweed = test: Test C postemergence; type: in vivo, Amaranthus retroflexus; details: for Pigweed plant response rating: scale 0 to 100
Source text: (§3) Seeds of plant species selected from blackgrass (Alopecurus myosuroides), ryegrass, Italian (Italian ryegrass, Lolium multiflorum), wheat (winter wheat, Triticum aestivum), galium (catchweed bedstraw, Galium aparine), corn (Zea mays), crabgrass, large (large crabgrass, Digitaria sanguinalis), foxtail, giant (giant foxtail, Setaria faberii), johnsongrass (Sorghum halepense), lambsquarters (Chenopodium album), morningglory (Ipomoea coccinea), nutsedge, yellow (yellow nutsedge, Cyperus esculentus), pigweed (redroot pigweed, Amaranthus retroflexus), ragweed (common ragweed, Ambrosia elation), soybean (Glycine max), barnyardgrass (Echinochloa crus-galli), oilseed rape (Brassica napus), waterhemp (common waterhemp, Amaranthus rudis), oat, wild (wild oat, Avena fatua), kochia (Kochia scoparia), Surinam grass (Brachiaria decumbens), foxtail, green (green foxtail, Setaria viridis), goosegrass (Eleusine indica), bromegrass, downy (downy bromegrass, Bromus tectorum), nightshade (eastern black nightshade, Solanum ptycanthum), cocklebur (common cocklebur, Xanthium strumarium), cupgrass, woolly (woolly cupgrass, Eriochloa villosa), bermudagrass (Cynodon dactylon), sunflower, (common oilseed sunflower, Helianthus annuus), Russian thistle (Salsola kali), and velvetleaf (Abutilon theophrasti) were planted into a blend of loam soil and sand and treated preemergence with test chemicals formulated in a non-phytotoxic solvent mixture which included a surfactant.
(§4) At the same time, plants selected from these crop and weed species and also chickweed (common chickweed, Stellaria media), canarygrass (littleseed canarygrass, Phalaris minor), and deadnettle (henbit deadnettle, Lamium amplexicaule), were planted in pots containing Redi-Earth® planting medium (Scotts Company, 14111 Scottslawn Road, Marysville, Ohio 43041) comprising spaghnum peat moss, vermiculite, wetting agent and starter nutrients and treated with postemergence applications of test chemicals formulated in the same manner. Plants ranged in height from 2 to 18 cm (1- to 4-leaf stage) for postemergence treatments. Treated plants and controls were maintained in a greenhouse for 13 to 15 days, after which time all species were compared to controls and visually evaluated. Plant response ratings, summarized in Table C, are based on a scale of 0 to 100 where 0 is no effect and 100 is complete control. A dash (-) response means no test result.

morningglory [6] = test: Test A preemergence; type: in vivo, Ipomoea spp.; details: 0 to 100 scale
Outline: as §1

chickweed = test: Test C postemergence; type: in vivo, Stellaria media; details: for Chickweed plant response rating: scale 0 to 100
Outline: as §2

barnyardgrass = test: Test A postemergence; type: in vivo, Echinochloa crus-galli; details: Postemergence
Outline: as §1

lambsquarters = test: Test C postemergence; type: in vivo, Chenopodium album; details: for Lambsquarters plant response rating: scale 0 to 100
Source text: as §3, §4

galium = test: Test C preemergence; type: in vivo, Galium aparine; details: for Plant response rating (scale of 0 to 100), Galium: Preemergence, 250 g ai/ha; for Galium plant response rating / Plant response rating, Galium: preemergence; for Plant response rating, Galium: 62 g ai/ha, scale 0 to 100, 0 = no effect, 100 = complete control
Source text: as §3, §4

[7] = Postemergence, 1000 g ai/ha, visual rating after approx. 10 days, 0 to 100 scale (0 no effect, 100 complete control)
[8] = 250 g ai/ha, scale 0 to 100 (0 no effect, 100 complete control)
[9] = 125 g ai/ha, scale 0 to 100, 0 no effect, 100 complete control
[10] = postemergence, 250 g ai/ha, scale 0 to 100 (0 no effect, 100 complete control)
[11] = postemergence, 62 g ai/ha, scale 0 to 100, 0 no effect, 100 complete control
[12] = postemergence, 125 g ai/ha, scale 0 to 100, 0 no effect, 100 complete control
[13] = Preemergence, 1000 g ai/ha, 0 no effect, 100 complete control
[14] = 1000 g ai/ha, visual rating after approx. 10 days, 0 to 100 scale (0 no effect, 100 complete control)
[15] = Postemergence, 500 g ai/ha, visual rating after approx. 10 days, 0 to 100 scale (0 no effect, 100 complete control)
[16] = postemergence, 125 g ai/ha, about 10 days, visual rating on 0 to 100 scale (0 no effect, 100 complete control)
[17] = Preemergence, 500 g ai/ha, 0 no effect, 100 complete control
[18] = preemergence, 125 g ai/ha, visual injury, approx. 10 days
[19] = 31 g ai/ha, scale 0 to 100 (0 no effect, 100 complete control), 13 to 15 days
[20] = 125 g ai/ha, scale 0 to 100, 0 is no effect, 100 is complete control
[21] = 125 g ai/ha, 0 to 100 scale, 0 no effect, 100 complete control
[22] = 500 g ai/ha, visual rating after approx. 10 days, 0 to 100 scale (0 no effect, 100 complete control)

| Structure (SMILES) | Velvetleaf plant response rating (velvetleaf [2]) | Plant response rating, Velvetleaf (velvetleaf [2]; [8]) | Plant response rating, Velvetleaf (velvetleaf [2]; [9]) | Oat, Wild plant response rating (oat, wild; Postemergence, 31 g ai/ha) | Plant response rating, Oat, Wild (oat, wild; [10]) | Plant response rating, Oat, Wild (oat, wild; [12]) | Morningglory plant response rating (morningglory [4]; Postemergence, 31 g ai/ha) | Plant response rating, Morningglory (morningglory [4]; [10]) | Plant response rating, Morningglory (morningglory [4]; [12]) | Pigweed plant response rating (pigweed; Postemergence, 31 g ai/ha) | Plant response rating, Pigweed (pigweed; [10]) | Plant response rating, Pigweed (pigweed; [12]) | Chickweed plant response rating (chickweed; Postemergence, 31 g ai/ha) | Plant response rating, Chickweed (chickweed; [10]) | Plant response rating, Chickweed (chickweed; [12]) | Lambsquarters plant response rating (lambsquarters; Postemergence, 31 g ai/ha) | Plant response rating, Lambsquarters (lambsquarters; [10]) | Plant response rating, Lambsquarters (lambsquarters; [12]) | Plant response rating (scale of 0 to 100), Galium (galium) | Galium plant response rating (galium; [19]) | further results |
| --- | --- | --- | --- | --- | --- | --- | --- | --- | --- | --- | --- | --- | --- | --- | --- | --- | --- | --- | --- | --- | --- |
| CCCNC(=O)c1cc(CC)n(Cc2cccc(OC(F)(F)F)c2)n1 [Compound 27] | 15 | 45 | 20 | 10 | 15 | 15 | 5 | 75 | 60 | 40 | 50 | 40 | 20 | 75 | 40 | 50 | 65 | 50 | – | – | Corn plant response rating (corn [1]; [7]): 60; Plant response rating, Oat, Wild (oat, wild; [11]): 10; Foxtail, Giant plant response rating (foxtail, giant; [13]): 90; Velvetleaf plant response rating (velvetleaf [3]; [7]): 100; Plant response rating, Morningglory (morningglory [4]; [11]): 60; Corn plant response rating (corn [5]; [13]): 30; Plant response rating, Pigweed (pigweed; [11]): 40; Morningglory plant response rating (morningglory [6]; [13]): 90; Plant response rating, Chickweed (chickweed; [11]): 20; Barnyardgrass plant response rating (barnyardgrass; [14]): 60; Plant response rating, Lambsquarters (lambsquarters; [11]): 50 |
| CCc1cc(C(=O)NOC(C)C)nn1Cc1cccc(OC(F)(F)F)c1 [Compound 70] | 20 | 55 | 30 | 20 | 35 | 30 | 5 | 85 | 75 | 60 | 75 | 70 | 45 | 65 | 50 | 75 | 98 | 95 | 98 | 65 | Corn plant response rating (corn [1]; [15]): 70; Corn plant response rating (corn [1]; [16]): 60; Plant response rating, Oat, Wild (oat, wild; [11]): 20; Foxtail, Giant plant response rating (foxtail, giant; [17]): 100; Foxtail, Giant plant response rating (foxtail, giant; [18]): 90; Velvetleaf plant response rating (velvetleaf [3]; [15]): 90; Velvetleaf plant response rating (velvetleaf [3]; [16]): 80; Plant response rating, Morningglory (morningglory [4]; [11]): 45; Corn plant response rating (corn [5]; [17]): 80; Corn plant response rating (corn [5]; [18]): 50; Plant response rating, Pigweed (pigweed; [11]): 65; Morningglory plant response rating (morningglory [6]; [17]): 100; Morningglory plant response rating (morningglory [6]; [18]): 80; Plant response rating, Chickweed (chickweed; [11]): 45; Plant response rating, Galium (galium; 13 to 15 days): 95; Galium plant response rating (galium; [20]): 98; Barnyardgrass plant response rating (barnyardgrass; [21]): 80; Barnyardgrass plant response rating (barnyardgrass; [22]): 90; Plant response rating, Lambsquarters (lambsquarters; [11]): 95 |
| CCONC(=O)c1cc(CC)n(Cc2cccc(OC(F)(F)F)c2)n1 [Compound 72] | 5 | 55 | 35 | 5 | 35 | 20 | 0 | 65 | 60 | 45 | 65 | 65 | 40 | 80 | 50 | 60 | 98 | 90 | 100 | 70 | Corn plant response rating (corn [1]; [15]): 80; Corn plant response rating (corn [1]; [16]): 70; Oat, Wild plant response rating (oat, wild; postemergence, 62 g ai/ha): 5; Foxtail, Giant plant response rating (foxtail, giant; [17]): 100; Foxtail, Giant plant response rating (foxtail, giant; [18]): 70; Velvetleaf plant response rating (velvetleaf [3]; [15]): 90; Velvetleaf plant response rating (velvetleaf [3]; [16]): 80; Morningglory plant response rating (morningglory [4]; postemergence, 62 g ai/ha): 35; Corn plant response rating (corn [5]; [17]): 70; Corn plant response rating (corn [5]; [18]): 50; Pigweed plant response rating (pigweed; postemergence, 62 g ai/ha): 45; Morningglory plant response rating (morningglory [6]; [17]): 90; Morningglory plant response rating (morningglory [6]; [18]): 60; Chickweed plant response rating (chickweed; postemergence, 62 g ai/ha): 40; Plant response rating, Galium (galium; 13 to 15 days): 98; Galium plant response rating (galium; [20]): 100; Barnyardgrass plant response rating (barnyardgrass; [21]): 90; Barnyardgrass plant response rating (barnyardgrass; [22]): 90; Lambsquarters plant response rating (lambsquarters; postemergence, 62 g ai/ha): 70 |
| Cc1cc(C(=O)NCC(F)(F)F)nn1Cc1ccnc(C(F)(F)F)c1 [Compound 74] | 30 | 40 | 30 | 0 | 5 | 5 | 70 | 80 | 75 | 60 | 80 | 80 | 20 | 55 | 45 | 20 | 90 | 80 | 100 | 85 | Corn plant response rating (corn [1]; [7]): 100; Oat, Wild plant response rating (oat, wild; postemergence, 62 g ai/ha): 0; Foxtail, Giant plant response rating (foxtail, giant; [13]): 100; Velvetleaf plant response rating (velvetleaf [3]; [7]): 100; Morningglory plant response rating (morningglory [4]; postemergence, 62 g ai/ha): 75; Corn plant response rating (corn [5]; [13]): 90; Pigweed plant response rating (pigweed; postemergence, 62 g ai/ha): 65; Morningglory plant response rating (morningglory [6]; [13]): 100; Chickweed plant response rating (chickweed; postemergence, 62 g ai/ha): 45; Plant response rating, Galium (galium; 13 to 15 days): 100; Galium plant response rating (galium; [20]): 100; Barnyardgrass plant response rating (barnyardgrass; [14]): 90; Lambsquarters plant response rating (lambsquarters; postemergence, 62 g ai/ha): 35 |
